# Test results reported in ChEMBL document CHEMBL1153748 (J Med Chem, 2010).
# How the values were obtained:
# [1] = target: T1, Peroxisome proliferator-activated receptor gamma (Homo sapiens, UniProt P37231); type: cell-based, 293T; conditions: read-out: EC50
# T1 sequence (P37231 whole entry): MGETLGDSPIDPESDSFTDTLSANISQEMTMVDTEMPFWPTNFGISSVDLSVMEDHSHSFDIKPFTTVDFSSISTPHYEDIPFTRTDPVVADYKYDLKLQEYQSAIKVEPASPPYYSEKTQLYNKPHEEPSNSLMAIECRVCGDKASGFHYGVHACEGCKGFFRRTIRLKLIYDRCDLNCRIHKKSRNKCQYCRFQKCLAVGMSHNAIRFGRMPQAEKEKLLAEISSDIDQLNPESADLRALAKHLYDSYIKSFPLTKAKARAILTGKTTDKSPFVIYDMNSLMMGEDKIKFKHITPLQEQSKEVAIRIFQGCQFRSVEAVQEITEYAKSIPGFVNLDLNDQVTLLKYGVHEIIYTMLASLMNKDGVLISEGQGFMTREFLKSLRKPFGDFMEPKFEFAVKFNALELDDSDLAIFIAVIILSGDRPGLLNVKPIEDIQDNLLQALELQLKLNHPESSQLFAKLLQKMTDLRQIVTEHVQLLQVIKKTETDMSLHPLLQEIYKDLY
# [2] = target: T2, Peroxisome proliferator-activated receptor alpha (Homo sapiens, UniProt Q07869); assay: Agonist activity at human PPARalpha ligand binding domain expressed in human 293T cells co-transfected with Gal4-DBD by luciferase transactivation assay; type: cell-based; conditions: read-out: EC50
# T2 sequence (Q07869 whole entry): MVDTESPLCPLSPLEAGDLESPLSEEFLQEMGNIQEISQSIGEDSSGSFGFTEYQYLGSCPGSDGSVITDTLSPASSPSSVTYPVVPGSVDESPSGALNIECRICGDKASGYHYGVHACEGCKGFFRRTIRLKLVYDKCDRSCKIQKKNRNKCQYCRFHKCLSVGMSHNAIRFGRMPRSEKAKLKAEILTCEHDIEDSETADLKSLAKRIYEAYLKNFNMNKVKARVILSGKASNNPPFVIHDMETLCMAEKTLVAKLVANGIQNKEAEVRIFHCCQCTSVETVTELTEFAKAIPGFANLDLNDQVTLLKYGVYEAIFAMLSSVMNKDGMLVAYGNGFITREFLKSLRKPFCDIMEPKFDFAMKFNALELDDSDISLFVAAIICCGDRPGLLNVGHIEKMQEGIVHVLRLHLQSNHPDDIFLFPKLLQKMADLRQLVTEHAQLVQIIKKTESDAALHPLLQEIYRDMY
# [3] = target: T3, Peroxisome proliferator-activated receptor delta (Homo sapiens, UniProt Q03181)
# T3 sequence (Q03181 whole entry): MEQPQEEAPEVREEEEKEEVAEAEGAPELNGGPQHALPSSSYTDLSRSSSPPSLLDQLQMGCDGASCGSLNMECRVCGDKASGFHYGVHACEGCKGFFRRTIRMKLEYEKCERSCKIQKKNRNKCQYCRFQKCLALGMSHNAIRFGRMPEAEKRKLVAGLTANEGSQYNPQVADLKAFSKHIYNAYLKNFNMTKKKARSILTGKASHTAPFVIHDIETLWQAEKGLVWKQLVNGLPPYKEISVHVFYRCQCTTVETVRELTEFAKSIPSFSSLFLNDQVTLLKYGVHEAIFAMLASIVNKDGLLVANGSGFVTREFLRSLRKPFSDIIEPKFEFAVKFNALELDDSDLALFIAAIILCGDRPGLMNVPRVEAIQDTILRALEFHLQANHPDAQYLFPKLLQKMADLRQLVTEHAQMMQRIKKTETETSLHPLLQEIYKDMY
SMILES,EC50 [1] [µM],EC50 [2] [µM],EC50 [3] [µM]
COc1ccc(-c2nc(COc3ccc4c(c3)CC(C(=O)O)O4)sc2-c2ccc(C(F)(F)F)cc2)cc1 (stereo not given),> 10,> 10,0.46
COc1ccc(-c2nc(COc3ccc(OCC(=O)O)c(C)c3)sc2-c2cnc3ccccc3c2)cc1,> 10,> 10,0.08
Cc1cc(OCc2nc(-c3ccc4c(c3)OCO4)c(-c3ccc(OC(F)(F)F)cc3)s2)ccc1OCC(=O)O,> 10,> 10,0.031
COc1ccc(-c2nc(COc3ccc(OCC(=O)O)c(C)c3)sc2/C=C/c2ccccc2)cc1,> 10,> 10,0.11
COc1ccc(-c2nc(SCc3ccc(OCC(=O)O)c(C)c3)sc2-c2ccc(OC)cc2)cc1,> 10,> 10,5.67
COc1ccc(-c2nc(Sc3ccc(OCC(=O)O)c(C)c3)sc2-c2ccc(OC)cc2)cc1,> 10,> 10,1.41
O=C(O)Cc1cccc(-c2noc(-c3ccccc3)c2C(=O)NCCOc2cc(Cl)cc(Cl)c2)c1,> 10,> 10,0.07
Cc1cc(OCc2nc(-c3ccc(C(F)(F)F)cc3)cs2)ccc1OCC(=O)O,> 10,> 10,1.39
CCCc1ccc(-c2sc(COc3ccc(OCC(=O)O)c(C)c3)nc2-c2ccc(OC)cc2)cc1,> 10,> 10,0.51
COc1ccc(-c2nc(COc3ccccc3OCC(=O)O)sc2-c2ccc(C(F)(F)F)cc2)cc1,> 10,> 10,> 10
COc1ccc(-c2nc(COc3ccc(OCC(=O)O)c4ccccc34)sc2-c2ccc(C(F)(F)F)cc2)cc1,> 10,> 10,2.93
COc1ccc(-c2nc(COc3ccc(CC(=O)O)c(C)c3)sc2-c2ccc(C(F)(F)F)cc2)cc1,> 10,> 10,0.14
Cc1cc(OCc2nc(-c3ccc(C(=O)N(C)C)cc3)c(-c3ccc(OC(F)(F)F)cc3)s2)ccc1OCC(=O)O,> 10,> 10,0.023
COc1ccc(-c2nc(CSc3ccc(CC(=O)O)cc3Cl)sc2-c2ccc(C(F)(F)F)cc2)cc1,> 10,> 10,0.062
COc1ccc(-c2nc(COc3ccc4c(ccn4CC(=O)O)c3)sc2-c2ccc(C(F)(F)F)cc2)cc1,> 10,> 10,0.34
CCCCOc1ccc(-c2nc(COc3ccc(OCC(=O)O)c(C)c3)sc2-c2ccc(OC(F)(F)F)cc2)cc1,> 10,> 10,0.026
COc1ccc(-c2nc(COc3ccc(OCC(=O)O)c(C)c3)sc2-c2ccc(SC(F)(F)F)cc2)cc1,> 10,> 10,0.15
COc1ccc(-c2nc(COc3ccc(OCC(=O)O)c(C)c3)sc2-c2cccc3ccccc23)cc1,> 10,> 10,> 10
COc1ccc(-c2nc(COc3ccc(OCC(=O)O)c(C)c3)sc2-c2cccc(C(F)(F)F)c2)cc1,> 10,> 10,0.07
COc1ccc(-c2nc(COc3ccc(OCC(=O)O)c(C)c3)sc2-c2ccc(C(C)(C)C)cc2)cc1,> 10,> 10,0.72
COc1ccc(-c2nc(CSc3ccc(OCC(=O)O)c(C)c3)sc2-c2ccc(OC)cc2)cc1,> 10,> 10,0.47
COc1ccc(-c2nc(COc3ccc(CC(=O)O)cc3Cl)sc2-c2ccc(OC)cc2)cc1,> 10,,
CCCc1c(OCCCSc2ccc(CC(=O)O)cc2Cl)ccc2c(CC)noc12 [L-165461],,1.3,
Cc1cc(OCc2cc(-c3ccc(C(F)(F)F)cc3)cc(-c3ccc(C(F)(F)F)cc3)c2)ccc1OCC(=O)O,> 10,> 10,

# Other lines, results leading:
EC50 [1] [µM],EC50 [2] [µM],EC50 [3] [µM],SMILES
> 10,> 10,0.032,CCOc1ccc(-c2nc(COc3ccc(OCC(=O)O)c(C)c3)sc2-c2ccc(OC(F)(F)F)cc2)cc1
> 10,> 10,1.2,COc1ccc(-c2nc(COc3ccc(OC(C)(C)C(=O)O)cc3)sc2-c2ccc(C(F)(F)F)cc2)cc1
> 10,> 10,0.25,COc1ccc(-c2nc(COc3ccc(OCC(=O)O)c(C)c3)sc2-c2ccc(-c3ccccc3)c(C(F)(F)F)c2)cc1
> 10,> 10,0.063,Cc1cc(OCc2nc(-c3ccc(OCC(C)C)cc3)c(-c3ccc(OC(F)(F)F)cc3)s2)ccc1OCC(=O)O
> 10,,,COc1ccc(-c2nc(SCc3ccc(CC(=O)O)cc3Cl)sc2-c2ccc(OC)cc2)cc1
> 10,> 10,2.4,Cc1cc(OCc2nc(-c3ccc(C(F)(F)F)cc3)c(C)s2)ccc1OCC(=O)O
> 10,> 10,> 10,COc1ccc(-c2nc(COc3cccc(OCC(=O)O)c3)sc2-c2ccc(C(F)(F)F)cc2)cc1
> 10,> 10,0.034,COc1ncc(-c2nc(COc3ccc(OCC(=O)O)c(C)c3)sc2-c2ccc(OC(F)(F)F)cc2)cn1
> 10,> 10,0.51,Cc1cc(OCc2nc(-c3ccc(Cl)cc3)c(-c3ccc(Cl)cc3)s2)ccc1OCC(=O)O
> 10,> 10,0.018,CCC(C)Oc1ccc(-c2nc(COc3ccc(OCC(=O)O)c(C)c3)sc2-c2ccc(OC(F)(F)F)cc2)cc1 (stereo not given)
> 10,> 10,0.23,COc1ccc(-c2nc(CSc3ccc(OCC(=O)O)c(C)c3)sc2-c2ccc(C(F)(F)F)cc2)cc1
> 10,> 10,0.05,COc1ccc(-c2nc(COc3ccc(OCC(=O)O)c(C)c3)oc2-c2ccc(Cl)cc2)cc1
> 10,> 10,0.01,COc1ccc(-c2nc(COc3ccc(OCC(=O)O)c(C)c3)sc2-c2ccc(-c3ccccc3)cc2)cc1
> 10,> 10,0.48,COc1ccc(-c2nc(COc3ccc(CC(=O)O)cc3Cl)sc2-c2ccc(C(F)(F)F)cc2)cc1
> 10,> 10,0.055,Cc1cc(OCc2nc(-c3cncnc3)c(-c3ccc(OC(F)(F)F)cc3)o2)ccc1OCC(=O)O
> 10,> 10,6.32,Cc1ccc(-c2sc(COc3ccc(OCC(=O)O)c(C)c3)nc2C)cc1
> 10,> 10,0.007,Cc1cc(OCc2nc(-c3cccnc3)c(-c3ccc(OC(F)(F)F)cc3)o2)ccc1OCC(=O)O
> 10,> 10,0.35,Cc1cc(OCc2nc(-c3ccc(C(F)(F)F)cc3)c(-c3ccc(C(F)(F)F)cc3)s2)ccc1OCC(=O)O
> 10,> 10,2.26,COc1ccc(-c2nc(COc3ccc(OCC(=O)O)cc3C)sc2-c2ccc(C(F)(F)F)cc2)cc1
> 10,> 10,> 10,Cc1ccc(-c2csc(COc3ccc(OCC(=O)O)c(C)c3)n2)cc1
> 10,,,COc1ccc(-c2nc(Sc3ccc(CC(=O)O)cc3Cl)sc2-c2ccc(OC)cc2)cc1
> 10,> 10,0.66,COc1ccc(-c2nc(CSc3ccc(OCC(=O)O)c(C)c3)oc2-c2ccc(OC)cc2)cc1
2.56,,,COc1ccc(-c2nc(SCCCCOc3ccc(CC(=O)O)cc3Cl)sc2-c2ccc(OC)cc2)cc1
2.3,0.3,3.2,COc1ccc(-c2nc(Sc3cccc(C(C)C(=O)O)c3)sc2-c2ccc(OC)cc2)cc1 (stereo not given)
5.87,,,COc1ccc(-c2nc(SCCOc3ccc(CC(=O)O)cc3Cl)sc2-c2ccc(OC)cc2)cc1
4.61,,,COc1ccc(-c2nc(SCCCOc3ccc(CC(=O)O)cc3Cl)sc2-c2ccc(OC)cc2)cc1
